Measurements published in EP4603105A1, “PHARMACEUTICAL COMPOSITION CONTAINING CYCLIC COMPOUND HAVING SELECTIVE KRAS INHIBITORY EFFECT AGAINST HRAS AND NRAS” (CHUGAI SEIYAKU KABUSHIKI KAISHA, priority 2022, dated 2024).
Where a SMILES comes first, the peptide text is derived from it. Bridges are numbered along the chain shown (N, C = ends). [ ]: non-standard residue; d: D form. The star is where a group is joined. hPhe(3-Cl-4-CF3) = N[C@@H](CCc1ccc(C(F)(F)F)c(Cl)c1)C(=O)O; NPrPhe(4-CF3) = CCCN[C@@H](Cc1ccc(C(F)(F)F)cc1)C(=O)O; NMeGly(cPent) = CN[C@H](C(=O)O)C1CCCC1; NEtPhe = CCN[C@@H](Cc1ccccc1)C(=O)O; NMeD = CN[C@@H](CC(=O)O)C(=O)O; NMeL = CN[C@@H](CC(C)C)C(=O)O; NMeAbu = CC[C@H](NC)C(=O)O; Morpholide = C1CN(*)CCO1; NMeA = CN[C@@H](C)C(=O)O; Ac5c = NC1(C(=O)O)CCCC1; Aze = O=C(O)[C@@H]1CCN1; Ac4c = NC1(C(=O)O)CCC1; NPrGly = CCCNCC(=O)O; Sar = CNCC(=O)O

What was measured:
[1] = system: human lung cancer strain NCI-H441; format: cell-based
How it was run: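 Readout: […] after the ATP-based reagent. Compound: serial dilutions in dimethyl sulfoxide.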

[2] = target: GDP-bound NRAS wild-type protein (Homo sapiens, UniProt P01111); assay: Binding to NRAS by surface plasmon resonance (SPR), KD and KD ratio to KRAS
Chain of GDP-bound NRAS wild-type protein (P01111 whole entry): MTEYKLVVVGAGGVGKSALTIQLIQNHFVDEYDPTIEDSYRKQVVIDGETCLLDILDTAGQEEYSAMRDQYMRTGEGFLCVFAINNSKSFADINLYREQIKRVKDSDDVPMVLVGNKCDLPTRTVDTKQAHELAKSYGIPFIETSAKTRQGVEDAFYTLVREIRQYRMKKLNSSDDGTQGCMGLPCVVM
How it was run: (§1)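 Affinity is measured by surface plasmon resonance at 30°C against captured, GDP-loaded RAS carrying a biotinylated Avi tag. Compounds are titrated by single-cycle kinetics, and KD comes from a 1:1 fit.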

HRAS wild-type protein = HRAS wild-type protein (Homo sapiens, UniProt P01112); assay: Binding to HRAS by surface plasmon resonance (SPR), KD and KD ratio to KRAS
Chain of HRAS wild-type protein (P01112 whole entry): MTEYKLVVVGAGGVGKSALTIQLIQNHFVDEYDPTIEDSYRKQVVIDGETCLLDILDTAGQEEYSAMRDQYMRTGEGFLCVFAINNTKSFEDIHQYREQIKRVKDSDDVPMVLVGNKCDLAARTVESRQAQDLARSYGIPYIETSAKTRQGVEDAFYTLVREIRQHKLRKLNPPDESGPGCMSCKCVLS
How it was run: as §1

[3] = ratio of KD value for GDP-bound NRAS wild-type protein to KD value for KRAS (SPR)
[4] = ratio of KD value for HRAS wild-type protein to KD value for KRAS (SPR)
[5] = ratio of the KD value with respect to GDP-bound NRAS wild-type protein to the KD value with respect to KRAS
[6] = ratio of the KD value with respect to HRAS wild-type protein to the KD value with respect to KRAS
[7] = ratio of KD for GDP-bound NRAS wild-type protein to KD for KRAS
[8] = ratio of KD for HRAS wild-type protein to KD for KRAS

SMILES | IC50 [1] | NRAS /KRAS [2, 3] | HRAS /KRAS (HRAS wild-type protein; [4]) | NRAS /KRAS [2, 5] | HRAS /KRAS (HRAS wild-type protein; [6]) | NRAS /KRAS [2, 7] | HRAS /KRAS (HRAS wild-type protein; [8])
CCCC[C@H]1C(=O)N[C@@H]([C@@H](C)CC)C(=O)N(C)CC(=O)N(C)[C@H]2C/C=C\CCN(C2=O)[C@@H](Cc2ccc(C(F)(F)F)cc2)C(=O)N(C)CC(=O)N[C@@H](CCc2cc(F)c(C(F)(F)F)c(F)c2)C(=O)N2C[C@@H](C)C[C@H]2C(=O)NC2(CC(C)(C)C2)C(=O)N(C)[C@@H](C2CCCC2)C(=O)N(C)[C@H](C(=O)N(C)C)CC(=O)N1C [PP1661] | 5.7 nM | A (a compound having 10 or more and less than 20 is denoted as A) | A (a compound having 10 or more and less than 20 is denoted as A) | – | – | – | –
CC[C@H](C)[C@@H]1NC(=O)[C@H](CC(C)C)N(C)C(=O)C[C@@H](C(=O)N(C)C)N(C)C(=O)[C@H](C2CCCC2)N(C)C(=O)C2(CCCC2)NC(=O)[C@@H]2CCCN2C(=O)[C@H](CCc2ccc(C(F)(F)F)c(Cl)c2)NC(=O)CN(C)C(=O)[C@H](Cc2ccc(C(F)(F)F)cc2)N2CC/C=C\COC[C@@H](C2=O)N(C)C(=O)CN(C)C1=O [PP0622] | 330 nM | – | – | B (a compound having 3 or more and less than 10 is denoted as B) | B (a compound having 3 or more and less than 10 is denoted as B) | – | –
CCCN1CC(=O)NC2(CCCC2)C(=O)N(C)[C@@H](C2CCCC2)C(=O)N(C)[C@H](C(=O)N2CCOCC2)CC(=O)N(C)[C@@H](CC(C)C)C(=O)N[C@@H]([C@@H](C)CC)C(=O)N2CC[C@H]2C(=O)N(C)CC(=O)N(CCC)[C@@H](Cc2ccc(C(F)(F)F)cc2)C(=O)N(C)CC(=O)N[C@@H](CCc2ccc(C(F)(F)F)c(Cl)c2)C1=O [PP0315] ([NMeL]I[Aze][Sar][NPrPhe(4-CF3)][Sar][hPhe(3-Cl-4-CF3)][NPrGly][Ac5c][NMeGly(cPent)][NMeD]-Morpholide; lactam N-11) | 148 nM | – | – | – | – | B (a compound having 3 or more and less than 10 is denoted as B) | B (a compound having 3 or more and less than 10 is denoted as B)
CCC[C@H]1C(=O)N[C@@H]([C@@H](C)CC)C(=O)N(C2CC2)CC(=O)N(C)[C@H]2C/C=C\CCN(C2=O)[C@@H](Cc2ccc(C)cc2)C(=O)N(C)CC(=O)N[C@@H](CCc2ccc(C(F)(F)F)c(OC)c2)C(=O)N2C[C@H](OCC)C[C@H]2C(=O)N(C)C2(CCC2)C(=O)N(C)[C@@H](C2CCCC2)C(=O)N(C)[C@H](C(=O)N2CCCCC2)CC(=O)N1C [PP3096] | 35.8 nM | – | – | – | – | A (a compound having 10 or more and less than 20 is denoted as A) | A (a compound having 10 or more and less than 20 is denoted as A)
CCO[C@@H]1C[C@H]2C(=O)NC3(CCC3)C(=O)N(C)[C@@H](C3CCCC3)C(=O)N(C)[C@H](C(=O)N(C)C)CC(=O)N(C)[C@@H](COC)C(=O)N[C@@H]([C@@H](C)CC)C(=O)N(C)CC(=O)N(C)[C@H]3CCCCN(C3=O)[C@@H](Cc3ccc(C(F)(F)F)cc3)C(=O)N(C)CC(=O)N[C@@H](CCc3cc(F)c(C(F)(F)F)c(F)c3)C(=O)N2C1 [PP0704] | 11.4 nM | – | – | C (A compound having a KD ratio of 0.1 or more and less than 3 is denoted as C) | C (A compound having a KD ratio of 0.1 or more and less than 3 is denoted as C) | – | –
CC[C@H](C)[C@@H]1NC(=O)[C@H](CC(C)C)N(C)C(=O)C[C@@H](C(=O)N2CCOCC2)N(C)C(=O)[C@H](C2CCCC2)N(C)C(=O)C2(CCCC2)NC(=O)[C@@H]2CCCN2C(=O)[C@H](CCc2ccc(C(F)(F)F)c(Cl)c2)NC(=O)CN(C)C(=O)[C@H](Cc2ccccc2)N(CC)C(=O)[C@@H]2CCN2C(=O)[C@H](C)N(C)C1=O [PP0215] ([NMeL]I[NMeA][Aze][NEtPhe][Sar][hPhe(3-Cl-4-CF3)]P[Ac5c][NMeGly(cPent)][NMeD]-Morpholide; lactam N-11) | 4.8 nM | – | – | – | – | C (A compound having a KD ratio of 0.1 or more and less than 3 is denoted as C) | C (A compound having a KD ratio of 0.1 or more and less than 3 is denoted as C)

Now from value to compound, other results behind:

IC50 [1] | SMILES | NRAS /KRAS [2, 3] | HRAS /KRAS (HRAS wild-type protein; [4]) | NRAS /KRAS [2, 5] | HRAS /KRAS (HRAS wild-type protein; [6]) | NRAS /KRAS [2, 7] | HRAS /KRAS (HRAS wild-type protein; [8])
18.5 nM | CCC[C@H]1C(=O)N[C@@H]([C@@H](C)CC)C(=O)N(C)CC(=O)N(C)[C@H]2C/C=C\CCN(C2=O)[C@@H](Cc2ccc(C)cc2)C(=O)N(C)CC(=O)N[C@@H](CCc2ccc(C(F)(F)F)c(Cl)c2)C(=O)N2C[C@@H](C)C[C@H]2C(=O)NC2(CC(C)(C)C2)C(=O)N(C)[C@@H](C2CCCC2)C(=O)N(C)[C@H](C(=O)N(C)CC)CC(=O)N1C [PP1893] | A (a compound having 10 or more and less than 20 is denoted as A) | B (a compound having 3 or more and less than 10 is denoted as B) | – | – | – | –
15.1 nM | CCCO[C@@H]1C[C@H]2C(=O)NC3(CC(C)(C)C3)C(=O)N(C)[C@@H](C3CCCC3)C(=O)N(C)[C@H](C(=O)N(C)CC)CC(=O)N(C)[C@H]3CCCc4ccc(cc4)C[C@@H](C(=O)N(C)CC(=O)N[C@@H](CCc4ccc(C(F)(F)F)c(OC)c4)C(=O)N2C1)N1CC/C=C\C[C@@H](C1=O)N(C)C(=O)CN(C1CC1)C(=O)[C@H]([C@@H](C)CC)NC3=O [PP3088] | – | – | – | – | B (a compound having 3 or more and less than 10 is denoted as B) | B (a compound having 3 or more and less than 10 is denoted as B)
13 nM | CCO[C@@H]1C[C@H]2C(=O)NC3(CC(C)(C)C3)C(=O)N(C)[C@@H](C3CCCC3)C(=O)N(C)[C@H](C(=O)N(C)CC)CC(=O)N(C)[C@@H](COC)C(=O)N[C@@H]([C@@H](C)CC)C(=O)N(C)CC(=O)N(C)[C@H]3C/C=C\CCN(C3=O)[C@@H](Cc3ccc(C(F)(F)F)cc3)C(=O)N(C)CC(=O)N[C@@H](CCc3ccc(Cl)c(Cl)c3)C(=O)N2C1 [PP2835] | – | – | – | – | A (a compound having 10 or more and less than 20 is denoted as A) | A (a compound having 10 or more and less than 20 is denoted as A)
32.8 nM | CCCN1C(=O)CN(C)C(=O)CN(C)C(=O)[C@H]([C@@H](C)CC)NC(=O)[C@H](CC(C)C)N(C)C(=O)C[C@@H](C(=O)N2CCOCC2)N(C)C(=O)[C@H](C2CCCC2)N(C)C(=O)C2(CCC2)NC(=O)[C@H](CC)N(C)C(=O)[C@H](CCc2ccc(C(F)(F)F)c(Cl)c2)NC(=O)CN(C)C(=O)[C@@H]1Cc1ccc(C(F)(F)F)cc1 [PP1918] ([NMeL]I[Sar][Sar][NPrPhe(4-CF3)][Sar][hPhe(3-Cl-4-CF3)][NMeAbu][Ac4c][NMeGly(cPent)][NMeD]-Morpholide; lactam N-11) | – | – | B (a compound having 3 or more and less than 10 is denoted as B) | C (A compound having a KD ratio of 0.1 or more and less than 3 is denoted as C) | – | –
13.3 nM | CCCN(C)C(=O)[C@@H]1CC(=O)N(C)[C@@H](COC)C(=O)N[C@@H]([C@@H](C)CC)C(=O)N(C)CC(=O)N(C)[C@H]2C/C=C\CCN(C2=O)[C@@H](Cc2ccc(C(F)(F)F)cc2)C(=O)N(C)CC(=O)N[C@@H](CCc2cc(F)c(Cl)c(F)c2)C(=O)N2C[C@H](OCC)C[C@H]2C(=O)NC2(CC(C)(C)C2)C(=O)N(C)[C@@H](C2CCCC2)C(=O)N1C [PP1763] | A (a compound having 10 or more and less than 20 is denoted as A) | A (a compound having 10 or more and less than 20 is denoted as A) | – | – | – | –
